From patent US20060270631A1, “Methods for the treatment and prevention of angiogenic diseases” (priority 2005, published 2006)
Where “and” joins values, the source holds several entries; their conditions need not be identical. Identical values can stand only once.

Columns and labels:
[1] = test system: VEGF-induced vascular permeability; experiment: VEGF-induced vascular leakage (Miles assay) in nude mice; type: in vivo, mouse; conditions: FIG. 7B
[2] = test system: female Swiss-Webster mice; conditions: mouse, in vivo
Experimental: (§1) The compounds are soluble to at least 15 mg/ml in 50% dimethylsulfoxide:50% phosphate-buffered saline (DMSO:PBS) for intraperitoneal (IP) administration or Polyethylene glycol-400 (PEG400) for oral dosing.

sphingosine kinase (SK) = experiment: Screening assay for inhibitors of SK; type: biochemical, human; conditions: library screen
Text: An assay for screening for inhibitors of SK has been established (French et al., Cancer Res 63: 5962 (2003)). […] Representative active compounds from four chemotypes of SK inhibitors, designated herein as Compounds I-IV, are shown in FIG. 1.

Pharmacokinetics in mice = type: in vivo, mouse; conditions: for AUC(0-inf) / Cmax / Tmax / half-life: female, Swiss-Webster, mouse, whole blood, mice
Experimental: Mice were anesthetized and blood was removed by cardiac puncture at time points ranging from 1 minute to 8 hours. […] Control blood samples were spiked with known amounts of internal standard and analyte to identify compound-specific peaks and to develop standard curves for quantification. Pharmacokinetic parameters were calculated using the WINNONLIN analysis software package (Pharsight).

female DBA/1 mice = experiment: Collagen-Induced Arthritis (CIA) model in mice; type: in vivo, mouse; conditions: 100 mg/kg orally, Day 12
[3] = test system: diabetic Sprague-Dawley rats; experiment: Retinal vascular permeability in streptozotocin-diabetic rats; type: in vivo, rat; conditions: 25 or 75 mg/kg IP, 5 days per week, Day 45 to Day 87; inner plexiform and outer nuclear layers
Experimental: FIG. 9. Effects of ABC 294640 on retinal vascular permeability in diabetic rats. From Day 45 through Day 87, Control (open bars) and Diabetic rats were treated with solvent (shaded bars) or ABC294640 at 25 mg/kg (horizontal-hatched bars) or 75 mg/kg (cross-hatched bars). On Day 87, retinal leakage in each animal was measured. Values represent the mean±sd for 3-5 rats per group.
Male Sprague-Dawley rats weighing 150-175 g were used. Diabetes was produced by intraperitoneal injection of streptozotocin (65 mg/kg in citrate buffer) after overnight fasting. Sham-injected non-diabetic animals were also carried as controls. Blood glucose was measured three days post-injection and animals with blood glucose over 250 mg/dL were used as diabetic rats for the study. Blood glucose levels and body weights were monitored weekly throughout the study. On Day 45, retinal vascular permeability was measured in a group of control and diabetic rats (Antonetti et al., Diabetes 47: 1953 (1998), Barber et al., Invest Ophthalmol Vis Sci 46: 2210 (2005)). […] Sections were dewaxed and viewed with an Olympus OM-2 fluorescence microscope fitted with a Sony CLD video camera. Fluorescence intensities of digital images were measured using Leica Confocal Software (Version 2.61, build 1538, LCS Lite, 2004). […]

physchem = conditions: aqueous with cosolvent or surfactant or cyclodextrin
Experimental: as §1

male Lewis rats = experiment: Adjuvant-Induced Arthritis model in rats; type: in vivo, rat; conditions: Day 10
Experimental: FIG. 11. Effects of ABC294640 on disease progression in the adjuvant-induced arthritis model in rats. Male Lewis rats were injected subcutaneously with Mycobacterium butyricum, and symptoms of immune reactivity were present after 2 weeks. Responsive rats were randomized into treatment groups (n=8 per group), and received oral daily doses of: solvent alone (0.375% Tween-80); 100 mg/kg ABC294640; 35 mg/kg ABC294640; or 5 mg/kg ABC294640, or intraperitoneal injections of indomethacin (5 mg/kg) every other day. The severity of disease in each animal was quantified by measurement of the hind paw thickness. Panel A. Time course of hind paw arthritic response. Panel B. Final day (Day 10) hind paw thickness measurements. Panel C. Change in paw thickness of respective group versus non-arthritic rats (naive) at Day 10. *,p<0.05; ***, p<0.001 versus solvent alone group.
Adjuvant-induced arthritis is another widely used assay that recapitulates many features of human rheumatoid arthritis, and so is useful in the evaluation of new drug candidates. Age- and weight-matched male Lewis rats (150-170 g) were injected subcutaneously in the tail with 1 mg of Mycobacterium butyricum (Difco, killed dried) suspended in 0.1 ml of light mineral oil. Symptoms of immune reactivity were present after 2 weeks. Responsive rats were randomized into treatment groups, and received oral daily doses (1 ml) of: solvent alone (0.375% Tween-80); 100 mg/kg ABC294640; 35 mg/kg ABC294640; or 5 mg/kg ABC294640, or intraperitoneal injections of indomethacin (5 mg/kg) every other day as a positive control. The severity of disease in each animal was quantified by measurement of the hind paw thickness. As above, a reduction of 30% or greater was considered to be an indication of anti-inflammatory activity in this model.

[4] = test system: JC murine mammary adenocarcinoma; experiment: JC mammary adenocarcinoma syngenic tumor model in Balb/C mice
Experimental: FIG. 12. […] Balb/c female mice were injected subcutaneously with JC cells suspended in PBS. […] Whole body weight and tumor volume measurement were performed for up to 18 days. *p<0.05. Inset: Averaged body weights of mice from each group during course of study.
FIG. 13. […] Balb/c female mice were injected s.c. with JC cells suspended in PBS.
We determined the antitumor activity of representative SK inhibitors in a syngenic mouse tumor model that uses a transformed murine mammary adenocarcinoma cell line (JC, ATCC Number CRL-2116) and Balb/C mice (Charles River) (Lee et al., Oncol Res 14: 49 (2003)). Animals were housed under 12 hour light/dark cycles, with food and water provided ad libitum. Tumor cells (1×10^6) were implanted subcutaneously, and tumor volume was calculated using the equation: (L×W^2)/2. Upon detection of tumors, mice were randomized into treatment groups.

endogenous SK = experiment: Cellular SK activity in bovine retinal endothelial cells; type: cell-based; conditions: 4 hours
Experimental: FIG. 3. Inhibition of cellular SK activity in RECs. Bovine retinal endothelial cells were incubated with 20 μM dimethylsphingosine (DMS) or 25 μg/mL Compound I, Compound II or Compound V (approximately 80 μM for each compound) for 4 hours before the addition of 0.4 μCi of [^3H]sphingosine. After 15 minutes, cells were lysed and extracted with chloroform: methanol. The total amounts of [^3H]sphingosine in the organic phase and [^3H]S1P in the aqueous phase were then determined. Values represent the mean±SD of duplicate samples in a typical experiment.
Cellular S1P formation assay. Cells were grown to confluency in 24-well tissue culture plates and serum-starved for 24 hours as described above. Cells were then treated with 1% DMSO (as the drug vehicle), 20 μM dimethylsphingosine, or the indicated concentration of an SK inhibitor for 4 hours. The cells were then incubated with [^3H]sphingosine for 15 minutes, and the formation of [^3H]S1P was measured as previously described (French et al., Cancer Res 63: 5962 (2003)). In some assays, the cells were serum-starved for 24 hours and then treated with VEGF (50 ng/mL) alone or in the presence of an SK inhibitor for an additional 12 hours. [^3 H]Sphingosine was then added for 15 minutes, and its conversion to [^3H]S1P was measured as indicated above.
A cell-based assay in which the phosphorylation of exogenously added [^3H]sphingosine to [^3H]S1P by endogenous SK can be quantified (French et al., Cancer Res 63: 5962 (2003)) was used to evaluate the effects of test compounds on the activity of SK in intact cells. In this assay, cells are incubated with [^3 H]sphingosine for an appropriate period of time, and then [^3H]sphingosine and [^3H]S1P (formed by endogenous SK activity) are separated by extraction and levels of both species are determined by scintillation counting. We have used a number of cell lines in this assay to confirm that the SK inhibitors are active in multiple intact cell systems. For example, human umbilical vein endothelial cells (HUVECs) are commonly used as a model of human vasculature. […] Similarly, the enzymatic activity of SK in bovine RECs, and its sensitivity to SK inhibitors were assessed. […] Each of inhibitors of SK (Compound I, Compound II and Compound V) was also active against the endogenous SK activity in the bovine RECs.

SMILES: O=C(NCc1ccncc1)C12CC3CC(C1)CC(c1ccc(Cl)cc1)(C3)C2 [ABC294640]
- VEGF-promoted dye leakage into mouse skin ([1]; 75 mg/kg intraperitoneal): suppressed
- VEGF-promoted dye leakage into mouse skin ([1]; 100 mg/kg oral gavage): suppressed
- nontoxic dose [2]: 1000 mg/kg
- dose with no immediate or delayed toxicity, acute ([2]; ip): at least 50 mg/kg
- dose without noticeable toxicity ([2]; po): at least 100 mg/kg
- inhibition of SK (sphingosine kinase (SK)): inhibit SK
- blood levels versus IC50 for inhibition of SK activity (Pharmacokinetics in mice; during the entire study (up to 8 hours)): exceeded the IC50
- AUC(0-inf) (Pharmacokinetics in mice; IV 50 mg/kg): 56900 ng·h/mL and 137 µM·h
- Cmax (Pharmacokinetics in mice; IV 50 mg/kg): 31100 ng/mL and 74 µM
- Tmax (Pharmacokinetics in mice; IV 50 mg/kg): 0 h
- half-life (Pharmacokinetics in mice; IV 50 mg/kg): 1.4 h
- AUC(0-inf) (Pharmacokinetics in mice; Oral 50 mg/kg): 37500 ng·h/mL and 90.1 µM·h
- Cmax (Pharmacokinetics in mice; Oral 50 mg/kg): 8000 ng/mL and 19 µM
- Tmax (Pharmacokinetics in mice; Oral 50 mg/kg): 0.25 h
- half-life (Pharmacokinetics in mice; Oral 50 mg/kg): 4.5 h
- reduction in clinical score versus vehicle (female DBA/1 mice; 6 days per week): 67%
- reduction in the increase in hind paw thickness versus vehicle (female DBA/1 mice; 6 days per week): 90%
- histologic damage of tibiotarsal joints (female DBA/1 mice): significantly reduced
- FITC-BSA leakage into the retina versus untreated diabetic rats [3]: substantially reduced
- solubility (physchem): ≥ 15 mg/mL
- reduction in the arthritic response (hind paw thickness) (male Lewis rats; 5 mg/kg oral daily): 13%
- reduction in the arthritic response (hind paw thickness) (male Lewis rats; 35 mg/kg oral daily): 42%
- reduction in the arthritic response (hind paw thickness) (male Lewis rats; 100 mg/kg oral daily): 76%
- inhibition of tumor growth ([4]; 100 mg/kg orally on odd days, PEG400): 69%
- therapeutic index (nontoxic dose/antitumor activity) ([4]; female, Balb/c, mouse, in vivo): greater than 30
- toxicity to the tumor-bearing mice ([4]; mouse, in vivo): without toxicity
- EC50 for inhibition of tumor growth ([4]; oral, odd days, dose-response, FIG. 13): approximately 35 mg/kg

SMILES: O=C(NN=Cc1c(O)ccc2ccccc12)c1cc(-c2ccc3ccccc3c2)n[nH]1 [Compound I]
- endogenous SK activity in bovine RECs (endogenous SK; 25 μg/mL (approximately 80 μM)): active

SMILES: O=C1C(=Cc2ccc(O)c(O)c2)Oc2ccccc21 [Compound V]
- endogenous SK activity in bovine RECs (endogenous SK; 25 μg/mL (approximately 80 μM)): active

SMILES: CCCCCCCCCCCCC/C=C/[C@@H](O)[C@H](CO)N(C)C [DMS, dimethylsphingosine, reference compound]
- endogenous SK activity in bovine RECs (endogenous SK; 20 μM, positive control): inhibition of SK
